The source of these data is patent US20250381269A1, “BISPECIFIC ANTIBODY BINDING EGFR AND B7-H3” (FORTVITA BIOLOGICS (SINGAPORE) PTE. LTD., priority 2022, published 2025).

Read-outs that look alike come from different tables or passages of the source.

In experiment [1] the test system is H358. As to the kind of experiment: ADCC report assay, H358. The class given is cell-based. As to conditions: EGFR WT, KRAS G12C, effector/target 10:1, 20 h. How it is done: In the ADCC report assay, ADCC effector cells ((Promega, G7102)) are engineered cells in which FcRIIIa (V158) receptor is overexpressed into Jurkat T cells, which rapidly respond to ADCC through the NFAT-RE driving element within the Jurkat T cells.
• (1) Tumor cells (cell lines listed in Table 3) and ADCC effector cells (Promega, G7102) were mixed well (1.5E4 cells: 1.5E5 cells/well/100 μL (1.5E5: 1.5E6 cells/mL)) according to an effector/target ratio (10:1), and added to a 96-well white plate (NUNC, 136101). • (2) The antibody molecules prepared in advance by dilution were added to the corresponding cell well plates, mixed well, and cultured at 37° C. with 5% CO2 for 20 h. • (3) The Bio-glo reagent (Promega, G755B) prepared in advance was added to the cell well plate, the plate was left to stand at room temperature for 10-15 min in the dark, and then the cells were detected by a multimode microplate reader (Molecular Devices, Spectra MAXi3).

The next experiment has as its system H1650. The class given is cell-based, human. The following applies: EGFR Amplification Del19, KRAS WT, huPBMC:target 50:1, 8 h, LDH. How it is done:
(§1) • (1) A CTS medium (Gibco, A3021002) was preheated at 37° C. huPBMC (Miaotong Biotechnology, PB 100C-W) was quickly thawed in a water bath, and then the cells were added slowly to 8 mL of CTS medium (containing 1% DNase). • (2) The mixture was centrifuged at 300 g for 8 min. The supernatant was removed, and the cells were resuspended in 30 mL of CTS (containing 10 μL of DNase), transferred to a T75 flask, and incubated in an incubator at 37° C. overnight. • (3) The suspension cells cultured overnight were taken and centrifuged at 300 g for 8 min. The supernatant was removed, and the cell density was adjusted with CTS. According to an effector/target ratio of effector cells (huPBMCs) to target cells (tumor cells in Table 5) of 50:1, huPBMCs and the tumor cells prepared in advance (Target: huPBMC=1.5E4/7.5E5 cells/well/100 μL) were plated in a 96-well low-adsorption plate (Corning. CLS7007-24EA). • (4) The diluted antibody drug was added to the corresponding cell well plate and cultured at 37° C. with 5% CO2 for 8 h. • (5) The mixture was centrifuged at 300 g for 5 min. 50 μL of the supernatant was transferred to a 96-well transparent flat-bottom plate ((NUNC, 136101), 50 μL of the LDH reagent (Promega, G1780) prepared in advance was added to the corresponding well plate, and the plate was left to stand at room temperature for 15-30 min in the dark. • (6) 50 μL LDH stop solution (Promega, G1780) was taken and detected by a multimode microplate reader (Molecular Devices, Spectra MAXi3) at 490 nm for readings.

Another experiment relates to H1975. The experiment is classed as cell-based, human. The following applies: EGFR L858R T790M, KRAS WT, huPBMC:target 50:1, 8 h, LDH. How it is done:
as §1

The test system of another experiment is H292. The experiment is classed as cell-based, human. As to conditions: EGFR WT, KRAS WT, huPBMC:target 50:1, 8 h, LDH. How it is done:
as §1

The next experiment deals with H322. The experiment is classed as cell-based, human. As to conditions: EGFR WT, KRAS WT, huPBMC:target 50:1, 8 h, LDH. How it is done: as §1
Experiment [2] deals with H358. The class given is cell-based, human. The following applies: EGFR WT, KRAS G12C, huPBMC:target 50:1, 8 h, LDH. On the procedure: as §1
The next experiment concerns SK-MES-1. The class given is cell-based, human. As to conditions: EGFR Amplification, KRAS WT, huPBMC:target 50:1, 8 h, LDH. On the procedure:
as §1

Experiment [3] deals with SK-MES-1 tumor-bearing mice. Description: Anti-tumor efficacy in SK-MES-1 tumor-bearing mice, 1 mg/kg single dose. As to conditions: SK-MES-1, Balb/c Nude mice, day 24; for Tumor volume (mm^3): 1 mg/kg i.p. single dose on day 6; for Complete response rate / Tumor growth inhibition (%): 1 mg/kg i.p. single dose; for Complete response rate: 7 mice per group; for Tumor growth inhibition (%): vs h-IgG 1 mg/kg. The experiment is classed as in vivo. An excerpt: SPF female Balb/c Nude mice (purchased from Beijing Vital River Laboratory Animal Technology Co., Ltd.) with certificate No. 110011211108966881 were used in the experiment.
SK-MES-1 cells were routinely subcultured for the subsequent in-vivo experiment. The cells were collected by centrifugation. Then the SK-MES-1 cells were resuspended in an equal-proportion mixture of PBS (1×) and Matrigel Matrix (Corning) to prepare a cell suspension with a cell concentration of 20×10^6 cells/mL. On day 0, 0.2 mL of the cell suspension was taken and subcutaneously inoculated to the right abdominal area of Balb/c Nude mice to establish SK-MES-1 tumor-bearing mouse models.
Six days after the tumor cell inoculation, the tumor volume in each mouse was measured. The mice were grouped (with 7 mice in each group).
Administration was performed once on day 6 after the inoculation of SK-MES-1 cells. Mice were monitored for tumor volume and body weight twice a week.
Tumor volume measurement: The maximum length of major axis (L) and maximum length of minor axis (W) of tumors were measured with a vernier caliper, and tumor volume was calculated by the following formula: V=L×W^2/2. The mice were weighed using an electronic balance.

As to amivantamab [JNJ372], the EC50 is 0.018 nM in the experiment on H358 [1]; 0.427 nM in the experiment on H1650; 0.117 nM in the experiment with H1975; 0.004 nM with H292; 0.032 nM with H322; 0.03 nM in the experiment on H358 [2]. This substance had an EC50 in the experiment on SK-MES-1 of 0.072 nM. Further, the “Tumor volume (mm^3)” value in experiment [3] worked out at 87 mm^3. Moreover, in experiment [3], the Complete response rate is 0/7. Also, the “Tumor growth inhibition (%)” value in experiment [3] came to 122%.
Consider zalutumumab [Zalu mAb], for which the concentration giving a half-maximal response (EC50) is 0.004 nM in the experiment on H358 [1]; 0.571 nM in the experiment on H1650; 0.118 nM with H1975; 0.001 nM in the experiment on H292; 0.014 nM in the experiment on H322; 0.007 nM with H358 [2]. Also, the EC50 in the experiment with SK-MES-1 came out at 0.014 nM. The “Tumor volume (mm^3)” value in experiment [3] worked out at 23 mm^3. For the same substance, the Complete response rate in experiment [3] was 2/7. For the same substance, the “Tumor growth inhibition (%)” value in experiment [3] amounted to 145%.
